Measurements published in ChEMBL document CHEMBL4425172, “Chemical synthesis, pharmacological evaluation and in silico analysis of new 2,3,3a,4,5,6-hexahydrocyclopenta[c]pyrazole derivatives as potential anti-mitotic agents” (Bioorg Med Chem Lett, 2016).
Activity calls are given as the source filed them. The calls are words filed in the database; no cut-off is given here.

How the values were obtained:
MDA-MB-231 = assay: Antiproliferative activity against human MDA-MB-231 cells assessed as reduction in cell viability measured after 72 hrs by MTS assay; type: functional, cell-based
MDA-MB-468 = assay: Antiproliferative activity against human MDA-MB-468 cells assessed as reduction in cell viability measured after 72 hrs by MTS assay; type: functional, cell-based
T47D = assay: Antiproliferative activity against human T47D cells assessed as reduction in cell viability measured after 72 hrs by MTS assay; type: functional, cell-based
MCF7 = assay: Antiproliferative activity against human MCF7 cells assessed as reduction in cell viability measured after 72 hrs by MTS assay; type: functional, cell-based
A549 = assay: Antiproliferative activity against human A549 cells assessed as reduction in cell viability measured after 72 hrs by MTS assay; type: functional, cell-based
[1] = Binding affinity to goat tubulin by double reciprocal plot analysis; parameters: species or system Capra hircus
Capra hircus [2] = organism: Capra hircus; assay: Binding affinity to goat tubulin assessed as increase in tubulin-colchicine fluorescence preincubated for 30 mins followed by colchicine addition measured after 60 mins by tryptophan fluorescence quenching assay
Capra hircus [3] = organism: Capra hircus; assay: Binding affinity to goat tubulin by tryptophan fluorescence quenching assay
[4] = Homo sapiens, MCF7, 72 h, read-out: IC50
[5] = Homo sapiens, MDA-MB-468, 72 h, read-out: IC50
[6] = Homo sapiens, MDA-MB-231, 72 h, read-out: IC50
[7] = Homo sapiens, T47D, 72 h, read-out: IC50
[8] = Homo sapiens, A549, 72 h, read-out: IC50

| Compound | IC50 (MDA-MB-231; mda-mb-231) | IC50 (MDA-MB-468; mda-mb-468) | IC50 (T47D; t47d) | IC50 (MCF7; [4]) [µM] | IC50 (A549; a549) | IC50 (MDA-MB-468; [5]) [µM] | IC50 (MCF7; mcf7) | IC50 (MDA-MB-231; [6]) [µM] | IC50 (T47D; [7]) [µM] | IC50 (A549; [8]) [µM] | Kd [1] [µM] | Activity (Capra hircus [2]) | Activity (Capra hircus [3]) |
| --- | --- | --- | --- | --- | --- | --- | --- | --- | --- | --- | --- | --- | --- |
| COc1ccc(C2C3CCCC3=NN2S(=O)(=O)c2ccc([N+](=O)[O-])cc2)cc1 (centres undefined) | Not Active | Not Active | Not Active | 151 | Not Active |  |  |  |  |  |  |  |  |
| O=S(=O)(c1ccc(Cl)cc1)N1N=C2CCCC2C1c1ccc(F)cc1 (centres undefined) |  | Not Active |  |  | Not Active |  | Not Active | 9.3 | 89.1 |  |  |  |  |
| O=[N+]([O-])c1ccc(S(=O)(=O)N2N=C3CCCC3C2c2ccc(Cl)cc2)cc1 (centres undefined) |  |  | Not Active |  | Not Active | 43.7 | Not Active | 42.7 |  |  |  |  |  |
| CC(C)c1ccc(C2C3CCCC3=NN2S(C)(=O)=O)cc1 (centres undefined) | Not Active |  | Not Active |  | Not Active | 120 | Not Active |  |  |  |  |  |  |
| CS(=O)(=O)N1N=C2CCCC2C1c1ccc(F)cc1 (centres undefined) |  |  | Not Active | 75.9 |  | 70.8 |  | 51.3 |  | 81.3 | 127 | Dose-dependent effect |  |
| CC(C)c1ccc(C2NN=C3CCCC32)cc1 (centres undefined) |  |  |  |  | Not Active | 186 | Not Active | 144 | 129 |  |  |  |  |
| COc1ccc(C2C3CCCC3=NN2S(=O)(=O)c2ccc(C)cc2)cc1 (centres undefined) | Not Active | Not Active | Not Active | 178 | Not Active |  |  |  |  |  |  |  |  |

Continued by falling IC50 (MDA-MB-468; [5]), values first:

| IC50 (MDA-MB-231; mda-mb-231) | IC50 (MDA-MB-468; mda-mb-468) | IC50 (T47D; t47d) | IC50 (MCF7; [4]) [µM] | IC50 (A549; a549) | IC50 (MDA-MB-468; [5]) [µM] | IC50 (MCF7; mcf7) | IC50 (MDA-MB-231; [6]) [µM] | IC50 (T47D; [7]) [µM] | IC50 (A549; [8]) [µM] | Kd [1] [µM] | Activity (Capra hircus [2]) | Activity (Capra hircus [3]) | Compound |
| --- | --- | --- | --- | --- | --- | --- | --- | --- | --- | --- | --- | --- | --- |
| Not Active |  | Not Active |  | Not Active | 28.2 | Not Active |  |  |  |  |  |  | CC(C)c1ccc(C2C3CCCC3=NN2S(=O)(=O)c2ccc([N+](=O)[O-])cc2)cc1 (centres undefined) |
| Not Active |  | Not Active | 24 |  | 20 |  |  |  | 44.7 |  |  |  | COc1ccc(C2NN=C3CCCC32)cc1 (centres undefined) |
| Not Active |  | Not Active |  | Not Active | 15.5 | Not Active |  |  |  |  |  |  | CC(C)c1ccc(C2C3CCCC3=NN2S(=O)(=O)c2ccc(Cl)cc2)cc1 (centres undefined) |
|  |  |  | 38 |  | 14.8 |  | 30.9 | 37.2 | 30.9 |  |  |  | Fc1ccc(C2NN=C3CCCC32)cc1 (centres undefined) |
|  |  |  | 51.3 |  | 10.2 |  | 25.1 | 29.5 | 47.9 |  |  |  | Clc1ccc(C2NN=C3CCCC32)cc1 (centres undefined) |
|  |  |  |  | Not Active | 7.9 | Not Active | 15.5 | 40.7 |  |  |  |  | Cc1ccc(S(=O)(=O)N2N=C3CCCC3C2c2ccc(C(C)C)cc2)cc1 (centres undefined) |
|  |  |  | 50.1 |  | 3.8 |  | 1.1 | 3.3 | 5.8 |  |  | Active | Cc1ccc(S(=O)(=O)N2N=C3CCCC3C2c2ccc(F)cc2)cc1 (centres undefined) |
|  |  |  | 15.8 |  | 1 |  | 8.7 | 0.8 | 19.1 | 85 | Dose-dependent effect |  | COc1ccc(C2C3CCCC3=NN2S(C)(=O)=O)cc1 (centres undefined) |
|  |  |  | 0.1 |  | 0.2 |  | 0.1 | 0.2 |  |  |  |  | CC(=O)O[C@H]1C(=O)[C@@]2(C)[C@H]([C@H](OC(=O)c3ccccc3)[C@]3(O)C[C@H](OC(=O)[C@H](O)[C@@H](NC(=O)c4ccccc4)c4ccccc4)C(C)=C1C3(C)C)[C@]1(OC(C)=O)CO[C@@H]1C[C@@H]2O [PACLITAXEL] |
